Legend:
[1] = biological target: KRAS G12D (Homo sapiens, UniProt P01116, G12D); experiment: SOS-catalyzed nucleotide exchange assay, KRAS G12D (Procedure A); format: biochemical; details: guanine nucleotide exchange (GNE)
Description: (§1) Procedure for SOS-Catalyzed Nucleotide Exchange Assay for KRAS-WT, G12C/D/V, G13D, HRAS, and NRAS (Procedure A)
(§2) Recombinant KRAS-G12C protein used in this assay has an additional triple mutation (C51S/C80L/C118S). Whereas KRAS-WT, G12D/V, G13D, HRAS and NRAS are in context of their WT protein sequence background. Specifically, the SOS-catalyzed nucleotide exchange assay utilizes a preformed TR-FRET complex containing a specific biotinylated RAS protein (KRAS-WT, G12C/V/D, G13D, HRAS, NRAS; described above) with Bodipy-GDP, and Terbium-streptavidin. Compounds are preincubated with this complex for 60 minutes. Subsequently, recombinant human SOS protein and unlabeled GTP are added to initiate the exchange reaction. Small molecule inhibitors stabilize the Bodipy-GDP complex whereas the untreated protein rapidly exchanges Bodipy-GDP for unlabeled GTP resulting in reduced TR-FRET signal.
(§3) To assemble the preformed TR-FRET complexes, each biotinylated RAS protein is diluted to 2 μM in an EDTA Buffer (20 mM HEPES pH 7.5, 50 mM sodium chloride, 10 mM EDTA, and 0.01% Tween) and incubated at room temperature for one hour. This mixture is then further diluted to 90 nM in an Assay Buffer (20 mM HEPES pH 7.5, 150 mM sodium chloride, 10 mM magnesium chloride, and 0.005% Tween) containing 15 nM of Terbium-Streptavidin (Invitrogen, catalog #PV3577) and 900 nM of Bodipy-GDP (Invitrogen, catalog #G22360) and incubated at room temperature for six hours. It should be noted that this preformed TR-FRET complex for each of the RAS protein were made ahead of time, aliquoted and stored at −80° C. until the day of the experiment.
(§4) Each test compound (10 mM stock in DMSO) is diluted in DMSO to make a final-10-point, 3-fold dilution and is acoustically dispensed into a 384-well assay plate (Corning, catalog #3820) using an Echo 550 (Labcyte). Each well of the assay plate receives 3 μL of a specific 3×RAS preformed TR-FRET complex and 3 μL of Assay Buffer and is incubated at room temperature for 60 minutes (preincubation time). Each well then receives 3 μL of 3× recombinant human SOS protein and GTP (Sigma, G8877) in Assay Buffer and is incubated at room temperature for 30 minutes (G13D), 60 minutes (KRAS WT/G12C/D, H/NRAS) or 90 minutes for G12V. The final reaction in each well of 9 μL consists of 3 mM GTP, specific Ras and SOS proteins in the following concentrations: KRAS-G12C/SOS=3 nM/40 nM, KRAS-WT and G12D/SOS=1 nM/40 nM, KRAS-G12V/SOS=1.25 nM/160 nM, KRAS-G13D/SOS=1.25 nM/0 nM, HRAS and NRAS=1.25 nM/40 nM.
(§5) The time-resolved fluorescence resonance energy transfer (TR-FRET) signal is measured on an Envision (PerkinElmer) plate reader: Excitation filter=340 nm; emission1=495 nm; emission2=520 nm; dichroic mirror=D400/D505; delay time=[…]. The signal of each well is determined as the ratio of the emission at 520 nm to that at 495 nm. Percent effect of each well is determined after normalization to control wells containing DMSO (no effect) or a saturating concentration of inhibitor (max effect). The apparent effect as a function of compound concentration is fit to a four-parameter logistic equation.
(§6) For Example No. 14, nucleotide exchange assays for KRAS G12D, WT, G12C, and G12V were performed according to Procedure B. All the other compounds were tested according to Procedure A.

[2] = biological target: KRAS G12V (Homo sapiens, UniProt P01116, G12V); experiment: SOS-catalyzed nucleotide exchange assay, KRAS G12V (Procedure A); format: biochemical; details: GNE
Description: as §1, §2, §3, §4, §5, §6

[3] = biological target: T1, AsPC-1 cells (Homo sapiens, UniProt P01116, G12D); experiment: Cellular phospho-ERK assay, AsPC-1 cells (KRAS G12D); format: cell-based; details: 2 hours, read-out: AsPC1 pERK IC50
T1 construct: p-ERK/total ERK AlphaSureFire read-out
Procedure: Procedure for Cellular Phospho-ERK Assay in KRAS Wild Type and Mutant (G12D, G12V) Cell Lines
PANC08.13 cells (ATCC® CRL-2551™), containing homozygous KRAS-G12D activating mutation, were cultured in growth medium made of RPMI1640-GlutaMAX™-I (ThermoFisher Scientific 61870) containing 15% heat inactivated fetal bovine serum (ThermoFisher Scientific 10091148)). AsPC-1 cells (ATCC® CRL-1682™), containing homozygous KRAS-G12D activating mutation, were cultured in T150 flask in growth medium (RPMI medium 1640-GlutaMAX™-I (ThermoFisher Scientific 61870) containing 10% fetal bovine serum (ThermoFisher Scientific 10091148)).
Cells for the assay were harvested in growth medium after TrypLE (ThermoFisher scientific 12604021) digestion and were seeded in a 384-well collagen coated cell culture plate (Corning 356702) at a density of 10,000-15,000 cells/20 μL/well, and incubated at 37° C., 5% CO2 overnight. The compound (with 10 mM stock concentration) dose-response titrations were prepared [30 μM final ERK detection assay concentration and 1:3 dilutions, 10-point dose response] and appropriate amounts (270 nL) of test compounds were dispensed in a 384-well intermediate plate using an Echo 550 liquid handler. 30 μL/well of RPMI medium 1640-GlutaMAX™-I was added to the intermediate plate and the contents of the intermediate plate (10 μL/well) were then transferred to the 384-well collagen coated cell culture plate, which was incubated at 37° C., 5% CO2 for 2 hours. After removal of medium from the collagen coated cell culture plate, cells were lysed in lysis buffer from Alpha SureFire® Ultra™ Multiplex p-ERK and total ERK assay kit (PerkinElmer MPSU-PTERK) containing Halt™ Protease and Phosphatase inhibitor cocktail (ThermoFisher Scientific 78446) at room temperature with constant shaking at 300 rpm for 30 minutes. The cell lysates were then transferred to an OptiPlate-384 plate (PerkinElmer 6005620), and the phosphorylation of ERK (p-ERK) and total ERK levels were detected by Alpha SureFire® Ultra™ Multiplex p-EEK kit and total ERK assay kit (PerkinElmer MPSU-PTERK) following the manufacturer's protocol. Assay plates were read on a EnVision Multimode Plate Reader (PerkinElmer), and the ratio of p-ERK vs. total ERK in each well was used as the final readout. Dose response curves were analyzed using a 4-parameter logistic model to calculate IC50 values using Spotfire software.

[4] = biological target: KRAS WT (Homo sapiens, UniProt P01116); experiment: SOS-catalyzed nucleotide exchange assay, KRAS WT (Procedure A); format: biochemical; details: GNE
Description: as §1, §2, §3, §4, §5, §6

Sequence of KRAS WT (P01116 with tags, fused parts or gaps isoform P01116-2): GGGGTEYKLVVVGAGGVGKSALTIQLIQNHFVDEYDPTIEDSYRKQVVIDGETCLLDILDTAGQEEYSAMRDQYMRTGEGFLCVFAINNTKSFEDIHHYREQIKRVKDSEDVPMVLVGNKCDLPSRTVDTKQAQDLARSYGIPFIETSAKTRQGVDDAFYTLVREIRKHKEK
T1 sequence (P01116 1-188 isoform P01116-2 G12D): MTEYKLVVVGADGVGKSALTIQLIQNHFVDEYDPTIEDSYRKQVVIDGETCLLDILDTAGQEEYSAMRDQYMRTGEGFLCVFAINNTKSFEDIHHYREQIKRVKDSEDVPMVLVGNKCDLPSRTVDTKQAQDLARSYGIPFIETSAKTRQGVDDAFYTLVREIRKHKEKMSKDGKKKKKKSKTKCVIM
Sequence of KRAS G12V (P01116 with tags, fused parts or gaps isoform P01116-2 G12V): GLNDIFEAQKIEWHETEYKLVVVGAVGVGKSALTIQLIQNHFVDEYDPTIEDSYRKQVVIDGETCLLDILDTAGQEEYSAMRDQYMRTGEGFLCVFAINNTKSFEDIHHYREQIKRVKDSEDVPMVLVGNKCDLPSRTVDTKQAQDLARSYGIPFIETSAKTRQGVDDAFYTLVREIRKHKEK
Sequence of KRAS G12D (P01116 with tags, fused parts or gaps isoform P01116-2 G12D): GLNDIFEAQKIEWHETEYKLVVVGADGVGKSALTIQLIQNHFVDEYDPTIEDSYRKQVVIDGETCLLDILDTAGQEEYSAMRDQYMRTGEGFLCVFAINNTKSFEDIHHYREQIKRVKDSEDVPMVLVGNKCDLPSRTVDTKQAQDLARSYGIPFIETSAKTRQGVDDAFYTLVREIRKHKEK

Row | SMILES | IC50 [1] [nM] | IC50 [2] [nM] | IC50 [3] [nM] | IC50 [4] [nM]
1 | C#Cc1c(F)ccc2cc3[nH]ncc3c(-c3nccc4c3sc3nc(OCC5(C(F)(F)F)CCOCC5)nc(N5C[C@H]6CC[C@@H](C5)N6)c34)c12 [Ex-110, 4-((1R,5S)-3,8-diazabicyclo[3.2.1]octan-3-yl)-8-(5-ethynyl-6-fluoro-1H-benzo[f]indazol-4-yl)-2-((4-(trifluoromethyl)tetrahydro-2H-pyran-4-yl)methoxy)pyrido[4′,3′:4,5]thieno[2,3-d]pyrimidine] | 2050 | > 11100 | 8280 | > 11100
2 | F[C@H]1CN2CCC[C@@]2(COc2nc(N3C[C@H]4CC[C@@H](C3)N4)c3c(n2)sc2c(-c4c(C5CC5)c(C(F)(F)F)cc5[nH]ncc45)nccc23)C1 [Ex-80, 4-((1R,5S)-3,8-diazabicyclo [3.2.1]octan-3-yl)-8-(5-cyclopropyl-6-(trifluoromethyl)-1H-indazol-4-yl)-2-(((2R,7aS)-2-fluorotetrahydro-1H-pyrrolizin-7a(5H)-yl)methoxy)pyrido [4′,3′:4,5]thieno [2,3-d]pyrimi-dine] | 3.57 | 734 | 411 | 706
3 | Cc1cc2[nH]ncc2c(-c2nccc3c2sc2nc(OC[C@H]4C[C@H](S(C)(=O)=O)C4)nc(N4C[C@H]5CC[C@@H](C4)N5)c23)c1C(F)(F)F [Ex-29, 4-((1R,5S)-3,8-diazabicyclo[3.2.1]octan-3-yl)-8-(6-methyl-5-(trifluoromethyl)-1H-indazol-4-yl)-2-(((1r,3R)-3-(methylsulfonyl)cyclobutyl)meth-oxy)pyrido[4′,3′:4,5] thieno[2,3-d]pyrimidine] | 2480 | > 11100 | > 30000 | > 11100
4 | C#Cc1c(F)ccc2cc3[nH]ncc3c(-c3nccc4c3sc3nc(OC[C@]5(CN6CCC(CCc7cn(C)nn7)CC6)CC5(F)F)nc(N5C[C@H]6CC[C@@H](C5)N6)c34)c12 [Ex-105, 4-((1R,5S)-3,8-diazabicyclo[3.2.1]octan-3-yl)-2-(((R)-2,2-difluoro-1-((4-(2-(1-methyl-1H-1,2,3-triazol-4-yl)ethyl)piperidin-1-yl)methyl)cyclopropyl)methoxy)-8-(5-ethynyl-6-fluoro-1H-benzo[f]indazol-4-yl)pyrido[4′,3′:4,5]thie-no[2,3-d]pyrimidine] | 1.6 | 475 | 67 | 279
5 | C#Cc1c(F)ccc2cc3[nH]ncc3c(-c3nccc4c3sc3nc(OC[C@]5(CN(C)C)CC5(F)F)nc(N5C[C@H]6CC[C@@H](C5)N6)c34)c12 [Ex-96, 1-((1R)-1-(((4-((1R,5S)-3,8-diazabicyclo[3.2.1]octan-3-yl)-8-(5-ethynyl-6-fluoro-1H-benzo[f]indazol-4-yl)pyrido[4′,3′:4,5]thie-no[2,3-d]pyrimidin-2-yl)oxy)methyl)-2,2-difluorocyclopropyl)-N,N-dimethylmethanamine] | 1.62 | 248 | 22.8 | 259
6 | C#Cc1c(F)ccc2cc3[nH]ncc3c(-c3nccc4c3sc3nc(OCC56CCCN5CC(=C(F)F)C6)nc(N5C[C@H]6CC[C@@H](C5)N6)c34)c12 (stereo partly drawn) [Ex-93, 4-((1R,5S)-3,8-diazabicyclo[3.2.1]octan-3-yl)-2-(((S)-2-(difluoromethylene)tetra-hydro-1H-pyrrolizin-7a(5H)-yl)methoxy)-8-(5-ethynyl-6-fluoro-1H-benzo[f]indazol-4-yl)pyrido[4′,3′:4,5] thie-no[2,3-d]pyrimidine] | 1.16 | 94.3 | 18 | 72.9

Further compounds by falling IC50 [1], results first:

Row | IC50 [1] [nM] | IC50 [2] [nM] | IC50 [3] [nM] | IC50 [4] [nM] | SMILES
7 | 3200 | > 11100 | 4880 | 6270 | FC(F)(F)C1(COc2nc(N3C[C@H]4CC[C@@H](C3)N4)c3c(n2)sc2c(-c4c(C5CC5)c(Cl)cc5[nH]ncc45)nccc23)CCOCC1 [Ex-118, 4-((1R,5S)-3,8-diazabicyclo[3.2.1]octan-3-yl)-8-(6-chloro-5-cyclopropyl-1H-indazol-4-yl)-2-((4-(trifluoromethyl)tetrahydro-2H-pyran-4-yl)methoxy)pyrido[4′,3′:4,5]thieno[2,3-d]pyrimidine]
8 | 575 | > 11100 | 6800 | > 11100 | Cc1cc2[nH]ncc2c(-c2nccc3c2sc2nc(N4CCCN(C)CC4C)nc(N4C[C@H]5CC[C@@H](C4)N5)c23)c1C(F)(F)F (stereo partly drawn) [Ex-81, 4-((1R,5S)-3,8-diazabicyclo[3.2.1]octan-3-yl)-2-(2,4-dimethyl-1,4-diazepan-1-yl)-8-(6-methyl-5-(trifluoromethyl)-1H-indazol-4-yl)pyrido[4′,3′:4,5]thieno[2,3-d]pyrimidine]
9 | 111 | > 11100 | 2940 | > 11100 | C#Cc1csc2cc3[nH]ncc3c(-c3nccc4c3sc3nc(OCC5(C#N)CCOCC5)nc(N5C[C@H]6CC[C@@H](C5)N6)c34)c12 [Ex-84, 4-(((4-((1R,5S)-3,8-diazabicyclo[3.2.1]oc-tan-3-yl)-8-(5-ethynyl-1H-thieno[3,2-f]indazol-4-yl)pyrido[4′,3′:4,5]thi-eno[2,3-d]pyrimi-din-2-yl)oxy)methyl)tetrahydro-2H-pyran-4-carbonitrile]
10 | 2.4 | 859 | 189 | 369 | Fc1ccc2cc3[nH]ncc3c(-c3nccc4c3C3(CC3)c3nc(OC[C@@]56CCCN5C[C@H](F)C6)nc(N5C[C@H]6CC[C@@H](C5)N6)c3-4)c2c1Cl (single isomer, unassigned) [Ex-117]

— patent US20260347372A1, “SMALL MOLECULE INHIBITORS OF KRAS G12D MUTANT” (MERCK SHARP & DOHME LLC, priority 2023, published 2026)
